From patent US20120083522A1, “MODULATION OF INFLAMMATORY RESPONSES BY FACTOR XI” (Isis Pharmaceuitcals, inc., priority 2009, published 2012)

Legend:
Assay type in all cases: cell-based
human Factor XI mRNA [1] = test: Antisense inhibition in HepG2 cells by microwalk gapmers, 75 nM, lipofectin (Example 3); conditions: HepG2 cells, 75 nM, oligonucleotides targeted to nucleobases 1275 to 1318 of SEQ ID NO: 1
Procedure, shortened: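 HepG2 cells (10,000 per well) were transfected with 75 nM gapmer using lipofectin and treated for about 24 h. Factor XI mRNA was quantified by real-time PCR, normalized to RiboGreen total RNA and expressed as percent inhibition versus untreated controls.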

human Factor XI mRNA [2] = test: Dose-dependent inhibition in HepG2 cells, electroporation (Example 4); conditions: 16 hours
Procedure, shortened: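 HepG2 cells electroporated with 0.7, 2.2, 6.7 or 20 μM antisense gapmer and harvested after ~16 h. Factor XI mRNA quantified by qRT-PCR (primer probe set RTS 2966), normalised to total RNA (RIBOGREEN). Reported as percent inhibition versus untreated control cells.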

human Factor XI mRNA [3] = test: Dose-dependent inhibition in HepG2 cells, lipofectin (Example 5); conditions: 16 hours
Procedure: (§1) Cells were plated at a density of 10,000 cells per well and transfected using lipofectin reagent with 2.34 nM, 4.69 nM, 9.375 nM, 18.75 nM, 37.5 nM, and 75 nM concentrations of antisense oligonucleotide, as specified in Table 11. After a treatment period of approximately 16 hours, RNA was isolated from the cells and human Factor XI mRNA levels were measured by quantitative real-time PCR. Human Factor XI primer probe set RTS 2966 was used to measure mRNA levels. Factor XI mRNA levels were adjusted according to total RNA content, as measured by RIBOGREEN®. Results are presented as percent inhibition of human Factor XI, relative to untreated control cells.

human Factor XI mRNA [4] = test: Dose-dependent inhibition in HepG2 cells, electroporation (Example 5); conditions: approx. 16 h, relative to untreated control cells
Procedure: The gapmers were also transfected via electroporation and their dose dependent inhibition of human Factor XI mRNA was measured. Cells were plated at a density of 20,000 cells per well and transfected via electroporation with 625 nM, 1250 nM, 2500 nM, 5,000 nM, 10,000 nM, and 20,000 nM concentrations of antisense oligonucleotide, as specified in Table 12. After a treatment period of approximately 16 hours, RNA was isolated from the cells and human Factor XI mRNA levels were measured by quantitative real-time PCR. Human Factor XI primer probe set RTS 2966 was used to measure mRNA levels. Factor XI mRNA levels were adjusted according to total RNA content, as measured by RIBOGREEN®. Results are presented as percent inhibition of human Factor XI, relative to untreated control cells.

human Factor XI mRNA [5] = test: Dose-dependent inhibition in HepB3 cells, lipofectin (Example 7); conditions: approx. 16 h
Procedure: as §1, with “4,000” for “10,000”, “2.3” for “2.34”, “4.7” for “4.69”, “9.4” for “9.375”, “14.” for “11.”, “of” for “of human”

Substance	% inhibition of human Factor XI mRNA levels (human Factor XI mRNA [1]) [%]	percent inhibition of Factor XI mRNA, relative to untreated control cells (human Factor XI mRNA [2]; 0.7 μM) [%]	percent inhibition of Factor XI mRNA, relative to untreated control cells (human Factor XI mRNA [2]; 2.2 μM) [%]	percent inhibition of Factor XI mRNA, relative to untreated control cells (human Factor XI mRNA [2]; 6.7 μM) [%]	percent inhibition of Factor XI mRNA, relative to untreated control cells (human Factor XI mRNA [2]; 20 μM) [%]	percent inhibition of human Factor XI mRNA, relative to untreated control cells (human Factor XI mRNA [3]; 2.34 nM) [%]	percent inhibition of human Factor XI mRNA, relative to untreated control cells (human Factor XI mRNA [3]; 4.69 nM) [%]	percent inhibition of human Factor XI mRNA, relative to untreated control cells (human Factor XI mRNA [3]; 9.375 nM) [%]	percent inhibition of human Factor XI mRNA, relative to untreated control cells (human Factor XI mRNA [3]; 18.75 nM) [%]	percent inhibition of human Factor XI mRNA, relative to untreated control cells (human Factor XI mRNA [3]; 37.5 nM) [%]	percent inhibition of human Factor XI mRNA, relative to untreated control cells (human Factor XI mRNA [3]; 75 nM) [%]	percent inhibition of human Factor XI mRNA (human Factor XI mRNA [4]; 625 nM) [%]	percent inhibition of human Factor XI mRNA (human Factor XI mRNA [4]; 1250 nM) [%]	percent inhibition of human Factor XI mRNA (human Factor XI mRNA [4]; 2500 nM) [%]	percent inhibition of human Factor XI mRNA (human Factor XI mRNA [4]; 5000 nM) [%]	percent inhibition of human Factor XI mRNA (human Factor XI mRNA [4]; 10000 nM) [%]	percent inhibition of human Factor XI mRNA (human Factor XI mRNA [4]; 20000 nM) [%]	percent inhibition of human Factor XI mRNA (human Factor XI mRNA [5]; 2.3 nM) [%]	percent inhibition of human Factor XI mRNA (human Factor XI mRNA [5]; 4.7 nM) [%]	percent inhibition of human Factor XI mRNA (human Factor XI mRNA [5]; 9.4 nM) [%]	other results
416864 (antisense GGCAGCGGACGGCATTGGTG; 5-10-5 gapmer, wing sugar chemistry not given here, further chemistry not given here) [compound 416864]	93	32	65	78	90	13	34	42	65	68	80	45	74	84	87	92	94	24	37	42	percent inhibition of human Factor XI mRNA (human Factor XI mRNA [5]; 18.75 nM): 66%; percent inhibition of human Factor XI mRNA (human Factor XI mRNA [5]; 37.5 nM): 76%; percent inhibition of human Factor XI mRNA (human Factor XI mRNA [5]; 75 nM): 63%
416925 (antisense GGTGCACAGTTTCTGGCAGG; 3-14-3 chimeric gapmer, wing sugar chemistry not given here, further chemistry not given here) [compound 416925]	98	0	40	76	80	24	34	45	56	67	72	64	80	88	91	95	96	26	33	45	percent inhibition of human Factor XI mRNA (human Factor XI mRNA [5]; 18.75 nM): 59%; percent inhibition of human Factor XI mRNA (human Factor XI mRNA [5]; 37.5 nM): 72%; percent inhibition of human Factor XI mRNA (human Factor XI mRNA [5]; 75 nM): 60%
416999 (antisense GCACAGTTTCTGGCAGGCCT; 2-13-5 gapmer, wing sugar chemistry not given here, further chemistry not given here) [compound 416999]	92	20	42	77	88	10	26	42	62	72	80	61	82	89	94	94	97	19	33	42	percent inhibition of human Factor XI mRNA (human Factor XI mRNA [5]; 18.75 nM): 60%; percent inhibition of human Factor XI mRNA (human Factor XI mRNA [5]; 37.5 nM): 71%; percent inhibition of human Factor XI mRNA (human Factor XI mRNA [5]; 75 nM): 59%
417002 (antisense GGTGCACAGTTTCTGGCAGG; 2-13-5 gapmer, wing sugar chemistry not given here, further chemistry not given here) [compound 417002]	92	32	38	82	91	17	26	49	61	81	84	59	72	86	90	94	96	24	30	46	percent inhibition of human Factor XI mRNA (human Factor XI mRNA [5]; 18.75 nM): 57%; percent inhibition of human Factor XI mRNA (human Factor XI mRNA [5]; 37.5 nM): 71%; percent inhibition of human Factor XI mRNA (human Factor XI mRNA [5]; 75 nM): 65%
